Like-named read-outs stand apart in the source and are kept apart here.
Tested on: Bacterial Pool
Assay: Dow time-kill test in pH 7.4 hand dish-washing liquid, with synergy index (Kull)
Format: cell-based
Details: for Concentration required to achieve >=4 Log bacterial counts reduction of tested biocides: 37° C., pool of seven bacteria 1×10^6~1×10^7 CFU/ml in pH 7.4 hand dish-washing liquid, active ingredient basis, unit ppm from b8, not given

Structure (SMILES) | Concentration required to achieve >=4 Log bacterial counts reduction of tested biocides (24 h) [ppm] | Concentration for >=4 log bacterial kill (Table 4, Bacterial Pool, 24 hours, glutaraldehyde alone (QA) or in the mixture (Qa), read-out: Minimum Inhibitory Concentration (ppm) Glut) [µg/mL] | Minimum Inhibitory Concentration (ppm) Glut (Table 5, Bacterial Pool, 24 hours, glutaraldehyde alone (QA) or in the mixture (Qa)) [ppm] | Concentration for >=4 log bacterial kill (24 h, read-out: Minimum Inhibitory Concentration (ppm) SOPP) [µg/mL] | Minimum Inhibitory Concentration (ppm) SOPP (Table 5, Bacterial Pool, 24 hours, SOPP alone (QB) or in the mixture (Qb)) [ppm]
O=CCCCC=O [Glutaraldehyde, Pentane-1,5-dial] | 100 | 100 | 100 | – | –
Oc1ccccc1-c1ccccc1.[Na] [SOPP alone, sodium orthophenylphenol] | 358.5 | – | – | 358 | 358.5
